# Source: patent US20240358865A1, “QUINOLINYL AND PRIDINYL CONTAINING COMPOUNDS TARGETING ON ALPHA-SYNUCLEIN FOR NEUROLOGICAL DISEASES” (Washington University, priority 2023, published 2024)
# Entries after “also recorded” stand apart in the source; their conditions may differ.
# Assays:
# AD brain tissue = AD brain tissue (Homo sapiens, UniProt P05067); assay: Competitive binding in AD brain tissue vs [3H]PiB; conditions: for Ki: AD brain tissue, radioligand [3H]PiB; for max % Inh_PiB: maximal inhibition of [3H]PiB binding in AD brain tissue
# Sequence of AD brain tissue (P05067 whole entry): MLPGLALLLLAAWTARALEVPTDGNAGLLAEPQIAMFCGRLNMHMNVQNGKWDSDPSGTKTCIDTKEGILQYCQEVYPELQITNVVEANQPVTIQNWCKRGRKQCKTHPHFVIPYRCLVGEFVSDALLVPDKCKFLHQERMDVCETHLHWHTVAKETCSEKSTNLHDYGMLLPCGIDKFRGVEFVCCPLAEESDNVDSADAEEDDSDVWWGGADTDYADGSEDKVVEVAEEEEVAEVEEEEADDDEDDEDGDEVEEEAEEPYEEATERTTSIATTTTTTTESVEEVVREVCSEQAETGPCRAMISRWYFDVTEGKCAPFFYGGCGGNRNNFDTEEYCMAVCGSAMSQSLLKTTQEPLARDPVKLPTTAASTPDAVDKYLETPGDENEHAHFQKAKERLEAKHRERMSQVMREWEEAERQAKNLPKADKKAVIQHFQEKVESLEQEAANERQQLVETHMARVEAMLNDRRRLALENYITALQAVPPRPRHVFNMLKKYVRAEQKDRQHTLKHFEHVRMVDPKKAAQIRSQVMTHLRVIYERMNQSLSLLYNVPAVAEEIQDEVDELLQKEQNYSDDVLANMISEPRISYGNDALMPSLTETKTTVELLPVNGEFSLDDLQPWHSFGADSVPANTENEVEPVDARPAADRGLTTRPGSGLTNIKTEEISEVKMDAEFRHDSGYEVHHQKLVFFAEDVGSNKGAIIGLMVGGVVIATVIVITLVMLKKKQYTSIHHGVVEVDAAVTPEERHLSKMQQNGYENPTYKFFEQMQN
# Method: The binding potency for Abeta was determined using [^3H]PIB for these new compounds (FIG. 5B).
# If the Ki value is smaller, these compounds are potent for AD brain tissue binding and are not selective for alpha-synuclein over abeta, or PD over AD.
# alpha-synuclein fibrils = alpha-synuclein fibrils (Homo sapiens, UniProt P37840); assay: Competitive binding to alpha-synuclein fibrils vs [3H]BF2846 (site 9); conditions: for Ki / Ki (nM), in a-syn fibrils v.s. [3H]BF2846: alpha-synuclein fibrils, radioligand [3H]BF2846, binding site 9; for Ki: read-out: Ki (nM), in a-syn fibrils v.s. [3H]BF2846; for max % inh_site9: maximal inhibition of [3H]BF2846 binding to alpha-synuclein fibrils
# [1] = PET studies in the brains of nonhuman primates (Example 3); format: in vivo
# From the text: A PET study in nonhuman primates found uptake of [^11C]TZ61-84 (FIG. 3C).
# Another PET study of [^18F]TZ80-156 and [^18F]TZ83-41 in nonhuman primates also found uptake (FIG. 4A).
# A further PET study also found uptake of several additional compounds, including [^18F]TZ80-156 and [^18F]TZ83-41 (FIG. 4B).
# [2] = MicroPET imaging of the macaque (NHP) brain; format: in vivo; conditions: for crossing of the blood brain barrier: NHP; for brain standardized uptake value (SUV) maximum: NHP brain, intravenous; for brain standardized uptake value (SUV) maximum / washout from the NHP brain: microPET
# From the text: (§1) The radiosynthesis of [^18F]TZ83-41 was accomplished by a two-step procedure with [^18F]fluoroethyl ptoluenesulfonate as a prosthetic group, followed by O-alkylation to the quinolinyl-containing phenol group. [^18F]TZ80-156 was synthesized starting from the allylic bromide precursor via nucleophilic halogen exchange (halex) reaction with [^18F]fluoride, followed by deprotection of the N-Boc amine with trifluoroacetic acid. Homologous competitive binding assays with α-synuclein fibrils amplified from PD tissue were used to determine the direct binding affinity of the two radioligands. The biodistribution study was performed in male Sprague Dawley (SD) rats at four time points (5, 30, 60 min and 120 min) after intravenous injection of the radiotracer. The uptake of radioactivity was calculated as percentage injected dose per gram (% ID/gram). Both radiotracers were evaluated with microPET imaging using a Focus 220 microPET scanner to collect dynamic scans after intravenous injection into male macaques (NHP) (FIGS. 1A-1C).
# [3] = Biodistribution study in rats; format: in vivo, Sprague Dawley (SD) rats
# From the text: as §1
# [4] = system: Alzheimer's disease brain tissue homogenate; assay: Direct radioligand binding to Alzheimer's disease brain tissue homogenate
# From the text: (§2) The radioligands [^18F]TZ83-41 and [^18F]TZ80-156 were successfully produced in 17±3% (n=2) and 25±5% (n=2) radiochemical yield (RCY) respectively with high molar activity (>37 GBq/μmol) and high radiochemical purity (>99%), at the end of synthesis (EOS).
# [5] = biological target: T1, α-synuclein fibrils amplified from PD tissue (Homo sapiens, UniProt P37840); assay: Direct radioligand (homologous competitive) binding assay; conditions: read-out: binding affinity for α-synuclein fibrils
# T1 construct: from tissue; host or cells: fibrils amplified from PD tissue (Banner amplified fibrils are mentioned)
# From the text: as §1, §2
# [6] = NHP plasma radiometabolite study (column-switching HPLC); format: in vivo, Monkey; conditions: for Peak B (%) (parental tracer): monkey plasma
# From the text: Monkey arterial/venous blood samples were collected at various intervals during the PET scans to measure the radio metabolite profile using the column-switching HPLC system equipped with an Oasis HLB online capture column (80 Å, 15 μm, 3.9 mm×20 mm, Waters 186001414) with Universal Guard Column holder (WAT046910, Waters) and a Agilent ZORBAX Eclipse XDB-C18 analytical column (5 μm, 250×4.6 mm, Part No. 990967-902), following a published protocol (Hilton J, et al., Nucl Med Biol. 2000 August; 27(6):627-30; Cai Z, et al., ACS Chem Neurosci. 2020 Feb. 19; 11(4):592-603).
# Briefly, blood samples (vary with volume, 4-8 mL) were collected at 5, 15, 30, 60, 90 min post-injection of radiotracer. The whole blood was centrifuged at RCF 1300 g for 5 min to separate the blood cells and obtain plasma. Clean supernatant plasma was collected and added into solid urea to eliminate competitive protein binding and to allow complete backflush of the parent compound and metabolites from the capture column to analytical column. Typically, 3.2 mL of plasma is added to 2.12 g of urea to yield a final concentration of 8 M urea and a final volume of about 4.5 mL. The plasma-urea mix was then filtered through a Whatman® GD/X syringe filters (pore size 1 μm, diam. 13 mm, WHA68841310, Sigma, USA) and injected into a 5 mL HPLC loop concatenating with the capture column, which eluted with 1% acetonitrile in ammonium formate (0.1 M, pH=4.5) at 2 mL/min for 4 min. The enriched radioactivity in the short capture column was reverse flowed into an analytical C18 column with 60% acetonitrile and 40% ammonium formate (0.1 M, pH=4.5) at a flow rate of 1.0 mL/min for 25 min.
# The radioactive peak B is the parental [^18F]TZ83-41 tracer with retention time of 14.3 min; one radiometabolite is peak A at 6.8 min (FIG. 2A and FIG. 2B).
smiles,measurement,setting,value
COc1ccc(Nc2ccc3cc(O)ccc3n2)cn1 [TZ61-23],Ki,AD brain tissue,36 ± 37 nM
same,max % Inh_PiB,AD brain tissue,30%
same,Ki,alpha-synuclein fibrils,1.56 nM
same,max % inh_site9,alpha-synuclein fibrils,20%
COc1ccc(Nc2ccc3cc(OC/C=C/I)ccc3n2)cn1 [TZ61-84],Ki,AD brain tissue,13.2 ± 17.2 nM
same,max % Inh_PiB,AD brain tissue,90%
same,Ki,alpha-synuclein fibrils,21.5 ± 34 nM
same,max % inh_site9,alpha-synuclein fibrils,100%
COc1ccc(Nc2nc3ccccc3cc2N)cn1 [TZ64-73],Ki,AD brain tissue,6.6 ± 2.7 nM
same,max % Inh_PiB,AD brain tissue,30%
same,Ki,alpha-synuclein fibrils,4.6 nM
same,max % inh_site9,alpha-synuclein fibrils,20%
COc1ccc(Nc2ccc3ccc(N)cc3n2)cn1 [TZ64-87],Ki,AD brain tissue,36 ± 30 nM
same,max % Inh_PiB,AD brain tissue,30%
same,Ki,alpha-synuclein fibrils,3.07 nM
same,max % inh_site9,alpha-synuclein fibrils,50%
COc1ccc2nc(Nc3ccc(C=O)o3)ccc2c1 [TZ64-91],Ki,AD brain tissue,53 ± 34 nM
same,max % Inh_PiB,AD brain tissue,50%
same,Ki,alpha-synuclein fibrils,1.4 nM
same,max % inh_site9,alpha-synuclein fibrils,70%
COc1ccc(Nc2ccc3cc(Br)ccc3n2)cn1 [TZ64-105],Ki,AD brain tissue,> 1000 nM
same,Ki,alpha-synuclein fibrils,18.7 nM
same,max % inh_site9,alpha-synuclein fibrils,50%
CCc1ccc(Nc2ccc3cc(OCCN4CCCCC4)ccc3n2)cn1 [TZ80-30],Ki,AD brain tissue,158 ± 36 nM
same,max % Inh_PiB,AD brain tissue,80%
same,Ki,alpha-synuclein fibrils,14.3 ± 25.4 nM
same,max % inh_site9,alpha-synuclein fibrils,100%
COc1ccc(Nc2ccc3cc(OC(F)F)ccc3n2)cn1 [TZ80-37],Ki,AD brain tissue,99 ± 90 nM
same,max % Inh_PiB,AD brain tissue,70%
same,Ki,alpha-synuclein fibrils,22.9 ± 28.2 nM
same,max % inh_site9,alpha-synuclein fibrils,60%
COc1ccc(Nc2ccc3cc(OCc4ccncc4)ccc3n2)cn1 [TZ80-42],Ki,AD brain tissue,72 ± 56 nM
same,max % Inh_PiB,AD brain tissue,60%
same,Ki,alpha-synuclein fibrils,16.6 ± 22.6 nM
same,max % inh_site9,alpha-synuclein fibrils,70%
COc1ccc(Nc2ccc3cc(OCCF)ccc3n2)cn1.Cl [TZ80-55],Ki,AD brain tissue,> 1000 nM
same,Ki,alpha-synuclein fibrils,26.1 nM
same,max % inh_site9,alpha-synuclein fibrils,70%
COc1ccc2nc(Nc3ccnc(OC)c3)ccc2c1.Cl [TZ80-59-B],Ki,AD brain tissue,108 ± 73 nM
same,max % Inh_PiB,AD brain tissue,100%
same,Ki,alpha-synuclein fibrils,17.9 ± 31.7 nM
same,max % inh_site9,alpha-synuclein fibrils,70%
COc1ccc(Nc2ccc3cc(OCc4cccnc4)ccc3n2)cn1.Cl [TZ80-66-B],Ki,AD brain tissue,25.2 ± 21.7 nM
same,max % Inh_PiB,AD brain tissue,80%
same,Ki,alpha-synuclein fibrils,30.4 ± 42.1 nM
same,max % inh_site9,alpha-synuclein fibrils,70%
COc1cccc(COc2ccc3nc(Nc4ccc(OC)nc4)ccc3c2)c1 [TZ80-77],Ki,AD brain tissue,15 ± 23.5 nM
same,max % Inh_PiB,AD brain tissue,100%
same,Ki,alpha-synuclein fibrils,32.8 ± 43.8 nM
same,max % inh_site9,alpha-synuclein fibrils,100%
COc1ccc2nc(Nc3nc4ccc(N(C)C)cc4s3)ccc2c1 [TZ80-83],Ki,AD brain tissue,50 ± 36 nM
same,max % Inh_PiB,AD brain tissue,80%
same,Ki,alpha-synuclein fibrils,24.1 ± 39.7 nM
same,max % inh_site9,alpha-synuclein fibrils,100%
CSc1ccc(Nc2ccc3cc(OC/C=C/I)ccc3n2)cn1 [TZ80-106],Ki,AD brain tissue,> 1000 nM
same,Ki,alpha-synuclein fibrils,15 ± 12.4 nM
same,max % inh_site9,alpha-synuclein fibrils,100%
COc1ccc(Nc2ccc3cc(OC/C=C/CF)ccc3n2)cn1 [TZ80-156],Ki,AD brain tissue,> 1000 nM
same,Ki,alpha-synuclein fibrils,14.9 ± 19.1 nM
same,max % inh_site9,alpha-synuclein fibrils,100%
CC(C)Oc1ccc(Nc2ccc3cc(OCCF)ccc3n2)cn1 [TZ83-39],Ki,AD brain tissue,142 ± 103 nM
same,max % Inh_PiB,AD brain tissue,20%
same,Ki,alpha-synuclein fibrils,30.1 nM
same,max % inh_site9,alpha-synuclein fibrils,60%
CCOc1ccc(Nc2ccc3cc(OCCF)ccc3n2)cn1.Cl [TZ83-40],Ki,AD brain tissue,354 ± 407 nM
same,max % Inh_PiB,AD brain tissue,40%
same,Ki,alpha-synuclein fibrils,13.3 ± 26.1 nM
same,max % inh_site9,alpha-synuclein fibrils,60%
CCCOc1ccc(Nc2ccc3cc(OCCF)ccc3n2)cn1 [TZ83-41],Ki,AD brain tissue,362 ± 372 nM
same,max % Inh_PiB,AD brain tissue,40%
same,Ki,alpha-synuclein fibrils,12.5 nM
same,max % inh_site9,alpha-synuclein fibrils,60%
COc1ccc2nc(Nc3cc(-c4ccccc4)n[nH]3)ccc2c1 [TZ88-5],Ki,AD brain tissue,7.1 ± 10.5 nM
same,max % Inh_PiB,AD brain tissue,100%
same,Ki,alpha-synuclein fibrils,55.6 nM
same,max % inh_site9,alpha-synuclein fibrils,40%
COc1ccc2c(c1)CCC(Nc1cc(C)n[nH]1)=N2 [TZ88-7],Ki,AD brain tissue,90 ± 155 nM
same,max % Inh_PiB,AD brain tissue,90%
same,"Ki (nM), in a-syn fibrils v.s. [3H]BF2846",alpha-synuclein fibrils,None
COc1ccc2nc(Nc3ccc(-n4cccn4)nc3)ccc2c1 [TZ88-11],Ki,AD brain tissue,46 ± 78 nM
same,max % Inh_PiB,AD brain tissue,70%
same,"Ki (nM), in a-syn fibrils v.s. [3H]BF2846",alpha-synuclein fibrils,None
COc1ccc2nc(Nc3ccc(N4CCOCC4)nc3)ccc2c1 [TZ88-18],Ki,AD brain tissue,1.6 ± 0.6 nM
same,max % Inh_PiB,AD brain tissue,100%
same,"Ki (nM), in a-syn fibrils v.s. [3H]BF2846",alpha-synuclein fibrils,None
COc1ccc2nc(Nc3ccc4cn[nH]c4c3)ccc2c1 [TZ88-21],Ki,AD brain tissue,5.8 ± 4.3 nM
same,max % Inh_PiB,AD brain tissue,100%
same,"Ki (nM), in a-syn fibrils v.s. [3H]BF2846",alpha-synuclein fibrils,None
COc1ccc2nc(Nc3ccc(NC(C)=O)nc3)ccc2c1 [TZ88-27],Ki,AD brain tissue,> 1000 nM
same,"Ki (nM), in a-syn fibrils v.s. [3H]BF2846",alpha-synuclein fibrils,None
COc1ccc(Nc2ccc3cc(OCCF)ccc3n2)cn1 [TZ90-3],Ki,AD brain tissue,10.8 ± 8.3 nM
same,max % Inh_PiB,AD brain tissue,100%
same,Ki,alpha-synuclein fibrils,34 ± 75.3 nM
COc1ccc2cc(Nc3ccc(OC)nc3)ncc2c1 [TZ90-4],Ki,AD brain tissue,3.1 ± 2.3 nM
same,max % Inh_PiB,AD brain tissue,100%
same,Ki,alpha-synuclein fibrils,46.2 ± 39.2 nM
same,max % inh_site9,alpha-synuclein fibrils,Shallow
COc1ccc(Nc2ccc3cc(OC)ccc3n2)cc1 [TZ90-8],Ki,AD brain tissue,2 ± 2.6 nM
same,max % Inh_PiB,AD brain tissue,100%
same,max % inh_site9,alpha-synuclein fibrils,Shallow
COc1ccc2nc(/C=C/c3nc4ccc(OC)cc4s3)ccc2c1 [TZ90-21],Ki,AD brain tissue,0.19 nM
same,max % Inh_PiB,AD brain tissue,30%
same,Ki,alpha-synuclein fibrils,129 ± 77 nM
COc1ccc(Nc2ccc3cc(OC/C=C/C[18F])ccc3n2)cn1 [[^18F]TZ80-156],brain uptake in PET study,[1],found uptake
same,crossing of the blood brain barrier,[2],crossed the blood brain barrier
same,brain standardized uptake value (SUV) maximum,[2],~2.0
same,washout from the NHP brain,[2],favorable washout rate; also recorded: favorable washout kinetics
same,bone uptake,[3]; 5 min,0.45
same,brain uptake,[3]; 5 min,0.86 % ID/gram
same,bone uptake,[3]; 30 min,2.18
same,brain uptake,[3]; 30 min,0.25 % ID/gram
same,brain uptake,[3]; 60 min,0.16 % ID/gram
same,bone uptake,[3]; 120 min,3.09
same,defluorination,[3]; judged from bone uptake,Significant defluorination
same,binding to Alzheimer's disease brain tissue homogenate,[4],little to no binding
same,Kd,[5],35 nM
CCCOc1ccc(Nc2ccc3cc(OCC[18F])ccc3n2)cn1 [[^18F]TZ83-41],brain uptake in PET study,[1],found uptake
same,Peak B (%) (parental tracer),[6]; 5 min post-injection,92%
same,Peak B (%) (parental tracer),[6]; 15 min post-injection,69%
same,Peak B (%) (parental tracer),[6]; 30 min post-injection,59%
same,Peak B (%) (parental tracer),[6]; 60 min post-injection,47%
same,Peak B (%) (parental tracer),[6]; 90 min post-injection,38%
same,lipophilic radiometabolite entering the brain,[6]; nonhuman primate plasma samples post injection,no lipophilic radiometabolite
same,crossing of the blood brain barrier,[2],crossed the blood brain barrier
same,brain standardized uptake value (SUV) maximum,[2],~2.0
same,washout from the NHP brain,[2],favorable washout rate; also recorded: favorable washout kinetics; also recorded: suitable brain washout pharmacokinetics
same,brain uptake (in words),[2]; nonhuman primate brain imaging,high brain uptake
same,brain uptake,[3]; from 5 to 120 min,0.71˜0.24 % ID/gram
same,binding to Alzheimer's disease brain tissue homogenate,[4],little to no binding
same,Kd,[5],7.6 nM
